For 34 compounds, outcome and Potency results are on record in PubChem BioAssay AID1208 (EPA DSSTox, 2008).

The source made the active and inactive calls.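 Rule for the calls: active = at least one rat sex group has a carcinogenic potency value and tumor site recorded; inconclusive = only rat studies were judged inadequate by the national testing program; inactive = no potency or tumor site, with negative rat experiments.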 *1 amine or outer side, *2 acyl side, *3 side chain or, on linkers, in order; H or OH if unused. Where a SMILES comes first, the peptide text is derived from it. Bridges are numbered along the chain shown (N, C = ends). Roman numbers before positions name the chains, in order. [ ]: non-standard residue; d: D form. Actinocin(1to9) = Cc1c2oc3c(C)ccc(C(=O)[*:2])c3nc-2c(C(=O)[*:1])c(N)c1=O; d(aIle) = CC[C@H](C)[C@@H](N)C(=O)O; NMeV = CN[C@H](C(=O)O)C(C)C; Sar = CNCC(=O)O

This data set deals with rat chronic carcinogenicity bioassay, TD50. Nature of the data set: DSSTox (CPDBAS) Carcinogenic Potency Database Summary Rat Bioassay Results. The note with it: for outcome: TD50_Rat_Note: no positive results; for Potency: stronger effect = lower value. An outline of the steps: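 The activity score maps log10(1/TD50_Rat_mmol) linearly onto 1–100; actives without a computed TD50, such as mixtures, receive 50. Source data are chronic rat carcinogenicity tests, using the most positive experiment for each sex.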

[1] abbreviates: TargetSites_Rat_Female: no positive results.
[2] abbreviates: TD50_Rat_Note: TD50 is harmonic mean of more than one positive test, TargetSites_Rat_Female: ear Zymbals gland, liver, vascular system.

With `P`, the outcome under setting [1] is “inactive; no positive results”. `O=C/C=C/O`: the Potency (TD50_Rat_Note: TD50 is harmonic mean of more than one positive test, TargetSites_Rat_Female: thyroid gland) is 122 mg/kg/day. For `CCCNC(=O)NS(=O)(=O)c1ccc(Cl)cc1`, under setting [1], the outcome was “inactive; no positive results”. With `CC(C)NCC(O)COc1ccc(CC(N)=O)cc1` (centres undefined), the outcome under setting [1] was “inactive; no positive results”. With `COc1cc(OC)c2c3c(c(=O)oc2c1)C(=O)CC3`, the outcome is “inactive; no positive results”. As for `COC(=O)C1=C(C)NC(C)=C(C(=O)OCCc2ccc(N3CCN(C(c4ccccc4)c4ccccc4)CC3)cc2)C1c1cccc([N+](=O)[O-])c1` (centres undefined), the outcome under setting [1] is “inactive; no positive results”. Same read-out and setting: then `CBr`, with “inactive; no positive results”; and `CC(=O)Nc1ccc(OCC(O)CNC(C)C)cc1` (centres undefined), with “inactive; no positive results”. Turning to `Nc1ccc(Oc2ccc(Cl)cc2)cc1`, the Potency is 37.6 mg/kg/day. On to `CN(N=O)C(=O)NCCC[C@H](N)C(=O)O`, for which the Potency (TD50_Rat_Note: positive test results only by intraperitoneal or intravenous injection, TD50 is harmonic mean of more than one positive, TargetSites_Rat_Female: kidney, mammary gland, pancreas, skin) was 0.787 mg/kg/day. In the case of `CCN(CC)C(=O)Nc1ccc(OCC(O)CNC(C)(C)C)c(C(C)=O)c1` (centres undefined), the outcome under setting [1] was “inactive; no positive results”.

Regarding `C=CF`, the Potency under setting [2] is 20 mg/kg/day.

Consider `COP(=S)(OC)SCn1nnc2ccccc2c1=O`, for which the outcome under setting [1] is “inactive; no positive results”.

In the case of `Brc1cc(-c2ccc(Br)c(Br)c2Br)cc(Br)c1Br`, the result under setting [1] was inactive. For `BrC(Br)Br`, the Potency (TD50_Rat_Note: TD50 is harmonic mean of more than one positive test, TargetSites_Rat_Female: large intestine) was 648 mg/kg/day. As for `CC(=O)OC[C@H]1O[C@H](O[C@]2(COC(C)=O)O[C@H](COC(=O)C(C)C)[C@@H](OC(=O)C(C)C)[C@@H]2OC(=O)C(C)C)[C@H](OC(=O)C(C)C)[C@@H](OC(=O)C(C)C)[C@@H]1OC(=O)C(C)C`, the outcome under setting [1] was “inactive; no positive results”. As for `O=NN1CCCCO1`, the Potency (TargetSites_Rat_BothSexes: all tumor bearing animals) is 24.3 mg/kg/day. For the compound `O=CC1CO1` (centres undefined), the outcome under setting [1] was inactive.

Take `CCCCCC`: under setting [1], the outcome was “inactive; no positive results”. With `CC[C@H](C)[C@H]1NC(=O)[C@@H](NC(=O)c2c3nc4c(C(=O)N[C@@H]5C(=O)N[C@H](C(C)C)C(=O)N6CCC[C@H]6C(=O)N(C)CC(=O)N(C)[C@@H](C(C)C)C(=O)O[C@@H]5C)ccc(C)c4oc-3c(C)c(=O)c2N)[C@@H](C)OC(=O)[C@H](C(C)C)N(C)C(=O)CN(C)C(=O)[C@@H]2CCCN2C1=O` (I: T[d(aIle)]P[Sar][NMeV] / II: T[dV]P[Sar][NMeV]; ester I:1-I:C, II:1-II:C; linker I:N-II:N via Actinocin(1to9)), the outcome is “inactive; no positive results”.

Turning to `CCCCNC(=O)NS(=O)(=O)c1ccc(C)cc1`, under setting [1], the outcome was “inactive; no positive results”. `C=CBr`: the Potency under setting [2] was 18.5 mg/kg/day. As for `N#Cc1c(Cl)c(Cl)c(Cl)c(C#N)c1Cl`, the Potency (TD50_Rat_Note: TD50 is harmonic mean of more than one positive test, TargetSites_Rat_Female: kidney) is 2270 mg/kg/day. As for `CC(C)O`, under setting [1], the outcome is “inactive; no positive results”. On the same count and under the same terms, then `Nc1ccc(O)c(N)c1`, with “inactive; no positive results”. Same read-out and setting: the result for `COc1ccc(C(c2ccc(OC)cc2)C(Cl)(Cl)Cl)cc1` reads “inactive; no positive results”. Same read-out and setting: then `ClC(Cl)=C(Cl)c1c(Cl)c(Cl)c(Cl)c(Cl)c1Cl`, with “inactive; no positive results”. In the case of `O=C([O-])c1cc(N=Nc2ccc(-c3ccc(N=Nc4c(O)ccc(N=Nc5cc(S(=O)(=O)[O-])ccc5[O-])c4[O-])cc3)cc2)ccc1O.[Cu+2].[Na+].[Na+]`, under “TargetSites_Rat_Female: liver”, the Potency is 2.07 mg/kg/day. In the case of `NC(=O)CCCCC(N)=O`, the outcome under setting [1] was “inactive; no positive results”.

For `COP(=O)(OC)O/C(=C\Cl)c1cc(Cl)c(Cl)cc1Cl`, the outcome (TargetSites_Rat_Female: no positive results- CPDB evaluation based on NCI Technical Report) is “no positive results”. Turning to `S=C=NCc1ccccc1`, the outcome was “inactive; no positive results”.

On to `CC(C)(C)c1cc([N+](=O)[O-])cc([N+](=O)[O-])c1OS(C)(=O)=O`, for which the outcome under setting [1] was “inactive; no positive results”. As for `Cc1cc(N=Nc2c(O)ccc3ccccc23)c(S(=O)(=O)O)cc1Cl`, under setting [1], the Potency is 146 mg/kg/day.

As to `[Cl-].[Cl-].[Cl-].[Fe+3]`, the outcome under setting [1] was “inactive; no positive results”.
